{"source": "a melting point compilation (Tetko et al.; mined from patent text by program, amines drawn as free bases though some values may be those of a salt)"}
{"units": {"melting point": "°C"}}
{"smiles": "COc1cccc2c1nc(C(F)F)n2-c1nc(Nc2ccc(Cl)nc2)nc(N2CCOCC2)n1", "melting point": "260 to 262"}
{"smiles": "COc1c(C2CCN(CCCCNC(=O)c3sc(-c4ccc(C#N)cc4)nc3CO)CC2)ccc2c1CCCC2", "melting point": 212}
{"smiles": "CS(=O)(=O)CC(=O)NCCn1ccc2ncnc(Nc3ccc(Oc4cccc(OC(F)(F)F)c4)c(Cl)c3)c21", "melting point": "133 to 135"}
{"smiles": "COc1ccc(-c2nc3c(O)cccc3s2)cc1", "melting point": "128 to 130"}
{"smiles": "CC(=O)Oc1c(C)c(C)c2c(c1C)CC(C)(C=O)O2", "note": "(stereo not given)", "melting point": "78 to 79"}
{"smiles": "CC1(C)C(c2cccs2)=NN=C1c1cccs1", "melting point": "153 to 156"}
{"smiles": "O=C(O)C1CCc2c(c3ccccc3n2C(=O)c2ccc(F)cc2)C1", "note": "(stereo not given)", "melting point": "180 to 182"}
{"smiles": "Cn1nc(S(C)=O)c(=O)c2ccccc21", "note": "(stereo not given)", "melting point": "187 to 189"}
{"smiles": "CNc1nc(-c2cc(C)c(O)c(C)c2)cc2ccc(CN3CCN(C)CC3)cc12", "melting point": "264 to 266"}
{"smiles": "CCCCOc1ccc2cc(O)ccc2c1", "melting point": "100 to 102"}
{"smiles": "COC(=O)c1oc2cc(OCc3nc(-c4ccccc4)oc3C)ccc2c1-c1ccccc1", "melting point": "139 to 140"}
{"smiles": "CC(C)N1C(=O)[C@@H](CCO)O[C@H](c2ccccc2Cl)c2cc(Cl)ccc21", "note": "(relative stereo)", "melting point": "188 to 189"}
{"smiles": "COc1ccc2c(c1)C(CC(=O)O)CCO2", "note": "(stereo not given)", "melting point": "80 to 83"}
{"smiles": "CN(C)CCNC1=CC(=O)c2nc(-c3ccc(F)cc3)sc2C1=O", "melting point": "246 to 247"}
{"smiles": "COc1cc2ncc(C#N)c(Nc3cccc(C(C)=O)c3)c2cc1OC", "melting point": "204 to 206"}
{"smiles": "CCCOc1ccc(C(=O)CN2CCOCC2)cc1-c1nc2c(CCC)nn(C)c2c(=O)[nH]1", "melting point": "128 to 129"}
{"smiles": "NC(=O)CSC(c1ccccc1)c1ccccc1", "melting point": "104 to 110"}
{"smiles": "CCOC(=O)CNc1ccc2ncccc2c1", "melting point": "122 to 123"}
{"smiles": "Cc1nc(N2CCC(Cc3ccc(OC(F)(F)F)cc3)C2=O)sc1C(=O)NCc1ccc(F)cc1", "note": "(stereo not given)", "melting point": "165 to 166"}
{"smiles": "CCOC(=O)c1ccc(-c2n[nH]c3ccccc23)cc1", "melting point": "133 to 135"}
{"smiles": "COc1c(Cl)c(C=O)c(Cl)c(OC)c1OC", "melting point": 76}
{"smiles": "Cc1ccc2c(c1)c(Cl)c(C#N)c(=O)n2C", "melting point": 241}
{"smiles": "CCOC(=O)C(=NO)c1csc(NC(c2ccccc2)(c2ccccc2)c2ccccc2)n1", "melting point": 260}
{"smiles": "Fc1ccc(Oc2cc3cnc(Cl)nc3cn2)c(F)c1", "melting point": "210 to 212"}
{"smiles": "CC(C)(C)c1cc(Br)c(C(C)(C)C)cc1N", "melting point": "89 to 90"}
{"smiles": "FC(F)(F)c1cc(C2CN(Cc3ccccc3)CO2)c2cccc(C(F)(F)F)c2n1", "note": "(stereo not given)", "melting point": "108 to 109"}
{"smiles": "Nc1nc(CCc2ccccc2)nc2oc(-c3ccco3)nc12", "melting point": "206 to 208"}
{"smiles": "COc1nc(C(=O)O)ccc1C#N", "melting point": "235 to 237"}
{"smiles": "CCc1c2c(nc3cc(F)c(F)cc13)-c1cc3c(c(=O)n1C2)COC(=O)CC3(O)CC", "note": "(stereo not given)", "melting point": "> 275"}
{"smiles": "CC(C)Cn1c(=O)n(C)c(=O)c2c(CCC(=O)O)c(Cc3ccccc3C(F)(F)F)sc21", "melting point": "165 to 167"}
{"smiles": "Cc1c(C)c(Cl)c2[nH]c(Cl)nc2c1Cl", "melting point": "280 to 285"}
{"smiles": "COc1c(C(=O)NCCN2CCN(c3cccc(Cl)c3Cl)CC2)cc(Br)c2ccccc12", "melting point": 137}
{"smiles": "COc1ccc2[nH]c(C(C)C)c(C=C3SC(=S)N(CC(=O)O)C3=O)c2c1", "melting point": "255 to 260"}
{"smiles": "CCc1cc(O)cc2c3c([nH]c12)C(CC)(CC(=O)OC)OCC3", "note": "(stereo not given)", "melting point": "153 to 154"}
{"smiles": "Cc1scc(CO)c1N", "melting point": "70 to 71"}
{"smiles": "COC(=O)c1ccc2c(c1)nc(C)n2N", "melting point": "220 to 222"}
{"smiles": "CCCNc1nc(N)nc(N(CCC)c2ccc(OC)c(F)c2)n1", "melting point": "53 to 55"}
{"smiles": "COc1cc2c(cc1OC)C(=O)C(=Cc1ccc(O)cc1)CC2", "melting point": "197 to 199"}
{"smiles": "Nc1c(Cl)ncnc1Nn1cccc1", "melting point": "130 to 132"}
{"smiles": "CN1CCC(=C2c3ccccc3C=Cc3ccc(I)cc32)CC1", "melting point": "166 to 170"}
{"smiles": "CC(C)CC1CCCCc2c1oc(=O)c(C(c1ccccc1)C1CC1)c2O", "note": "(stereo not given)", "melting point": "164 to 167"}
{"smiles": "Cc1ccccc1-c1ccc(C(=O)N2Cc3ccc(C(=O)NCc4ccc(Cl)cc4)n3Cc3ccccc32)cc1C", "melting point": "196 to 197"}
{"smiles": "CCOC(=O)c1c(C)nc2sc(C)nc2c1NCCCN(C)C", "melting point": "53 to 54"}
{"smiles": "CC1(C)C(C(=O)NO)N(S(=O)(=O)c2ccc(-c3ccc(Br)cc3)cc2)CCS1(=O)=O", "note": "(stereo not given)", "melting point": "190 to 191"}
{"smiles": "CONC1=NC(=O)C(=Cc2cccc(-c3cc(F)c(O)c(C45CC6CC(CC(C6)C4)C5)c3)c2)S1", "melting point": "286 to 288"}
{"smiles": "Clc1ccc(OCC2CCCC(OC(CBr)c3ccc(Cl)cc3Cl)O2)c(Cl)c1", "note": "(stereo not given)", "melting point": "104 to 105"}
{"smiles": "CCOC(=O)c1cc(-n2c(=O)c3c(n(COC)c2=O)CCC3)ccc1Cl", "melting point": "103 to 106"}
{"smiles": "CCCn1c(=O)c2[nH]c(CC34CC5CC(CC(C5)C3)C4)nc2n(CCC)c1=O", "melting point": "178 to 180"}
{"smiles": "COc1ccc(-c2cn(-c3nc(C)c(C(=O)NCc4ccccc4)s3)nn2)cc1", "melting point": "168 to 171"}
{"smiles": "CC1C(C)(C)c2ccc(O)cc2C1(C)C", "note": "(stereo not given)", "melting point": 149}
{"smiles": "O=C(NCCN1CCNCC1)c1cccc(C=CC(=O)N2CCc3c([nH]c4ccccc34)C2c2ccc3c(c2)OCO3)c1", "note": "(stereo not given)", "melting point": "138 to 140"}
{"smiles": "FC(F)(F)c1ccc(Oc2ccc3c(c2)OCC(c2ccccc2)O3)nc1", "note": "(stereo not given)", "melting point": "104 to 110"}
{"smiles": "COc1cc(F)ccc1C(=O)NCCN1CCC(n2c(=O)[nH]c3cc(Cl)ccc32)CC1", "melting point": 227}
{"smiles": "Cc1cc(Br)ccc1C1(CBr)OCCO1", "melting point": 86}
{"smiles": "CC(=O)NC(=O)C(=O)c1ccccc1", "melting point": "124 to 125"}
{"smiles": "CCCCCCCCCCCCCCCCC#CCC(CO)CO", "melting point": 55}
{"smiles": "O=C(NCC(=O)N1CCN(C(=O)c2cc(C(F)(F)F)cc(C(F)(F)F)c2)[C@H](Cc2c[nH]c3ccccc23)C1)c1ccccc1", "melting point": "123 to 135"}
{"smiles": "CCn1cc(C(=O)O)c(=O)c2cc(F)c(N3CCC(CN(C)C)C3)c(F)c21", "note": "(stereo not given)", "melting point": "204 to 206"}
{"smiles": "O=C(c1ccc(F)cc1)C1CCN(CCn2c(=O)c3ccccc3n(-c3ccccc3)c2=O)CC1", "melting point": 166}
{"smiles": "CCOC(=O)c1cc2c(C)ccc3c2n1CCC3=O", "melting point": "103 to 104"}
{"smiles": "CCn1nc2c(N)nc3ccccc3c2c1CC1(O)CCOCC1", "melting point": "253 to 255"}
{"smiles": "CC(N(CC(=O)O)C(=O)c1ccc(C(F)(F)F)cc1)C(O)(Cn1cncn1)c1ccc(C(F)(F)F)cc1", "note": "(stereo not given)", "melting point": "201 to 204"}
{"smiles": "Nc1ccc(OCc2ccc(Cl)nc2)cc1F", "melting point": 101}
{"smiles": "COc1ccc(CNc2c3c(nc4ccccc24)CCCC3O)cc1", "note": "(stereo not given)", "melting point": "163 to 165"}
{"smiles": "COc1ccc(NC(=O)c2ccc(-c3ccc(C(=O)N4CCC4)cc3C)cc2)cc1N1CCN(C)CC1", "melting point": "167 to 170"}
{"smiles": "O=C(O)c1cc(F)c(F)c(C(F)(F)F)c1F", "melting point": "87 to 90"}
{"smiles": "CC(CO)c1ccc2oc3nc(N)c(C(=O)O)cc3c(=O)c2c1", "note": "(stereo not given)", "melting point": "> 300"}
{"smiles": "CN(C)NC(=O)N(OCc1ccccc1)C1c2ccccc2Oc2ccccc21", "melting point": 117}
{"smiles": "COc1ccc(CC2=NC(C)(C)CO2)cc1NC(=O)C(C)(C)CCCOc1cc(C)ccc1C", "melting point": "79 to 80"}
{"smiles": "COc1ccc(CSc2cc(Cl)ccc2CN(C)C)cc1", "melting point": "66 to 68"}
{"smiles": "CS(=O)(=O)c1ccc(-c2ccccc2-c2ccc(F)cc2)cc1", "melting point": "178 to 179"}
{"smiles": "Cc1cc(Nc2ccnc(Nc3ccc(S(=O)(=O)N4CCC(CNCCC(=O)N(C)C)CC4)cc3)n2)ccc1F", "melting point": 201}
{"smiles": "Cc1csc2c1S(=O)(=O)N=C(NC(C)C)N2", "melting point": "152 to 154"}
{"smiles": "CC(C)C1C(=O)N(Cc2ccccc2)S(=O)(=O)N1C", "note": "(stereo not given)", "melting point": "52.5 to 54"}
{"smiles": "Cc1cccc(C)c1-c1nc2ccccc2n2cncc12", "melting point": "115 to 125"}
{"smiles": "CC(C)(C)OC(=O)OCn1c(C(=O)Nc2nc(-c3ccccc3)c(CCO)s2)cc2ccccc21", "melting point": "180 to 181"}
{"smiles": "Brc1ccc2c(c1Cc1cccc3cnccc13)OCO2", "melting point": "194 to 197"}
{"smiles": "Nc1nc(=O)n(CC2CCCO2)cc1F", "note": "(stereo not given)", "melting point": "168 to 170"}
{"smiles": "CCOC(=O)c1cnc2c3cc(NC(=O)C(C)C(C)CC)ccc3c(C)cn2c1=O", "note": "(stereo not given)", "melting point": "216 to 218"}
{"smiles": "COc1ccc(Nc2ccc(C)cc2)cc1", "melting point": "81 to 82"}
{"smiles": "CC#CCOc1ccc(S(=O)(=O)NC(C(=O)NO)c2ccc(OCCN3CCOCC3)cc2)cc1", "note": "(stereo not given)", "melting point": "80 to 86"}
{"smiles": "Cc1c(C2CCC(Cc3ccccc3)(N(C)C)CC2)[nH]c2ccc(C(F)(F)F)cc12", "note": "(stereo not given)", "melting point": "166 to 174"}
{"smiles": "COc1cc2c(cc1OCc1ccccc1)CCN(C(=O)NCCN(C)C1CCCCC1)C2c1ccccc1", "note": "(stereo not given)", "melting point": "109 to 110"}
{"smiles": "CN1CC=C(c2c[nH]c3ccc(NC(=N)c4cccs4)cc23)CC1", "melting point": "215 to 218"}
{"smiles": "CC[C@@H](c1ccccc1)N(Cc1ccc(C(=O)O)cc1)S(=O)(=O)c1ccc(C(=O)O)cc1", "melting point": "102 to 104"}
{"smiles": "O=C(O)c1cc(Oc2c(Cl)cc(Cl)cc2Cl)ccc1[N+](=O)[O-]", "melting point": 192}
{"smiles": "O[C@@H]1CCCN(C[C@@H]2CCN(CCc3c[nH]c4ccc(-n5cncn5)cc34)C2)[C@@H]1c1ccccc1", "melting point": "192 to 193"}
{"smiles": "CN1CCN(c2c(-c3ccccc3)sc3ccccc23)CC1", "melting point": "118 to 120"}
{"smiles": "Cn1nc(CO)cc1OCCCN1CCN(c2cccc3sccc23)CC1", "melting point": "124 to 126"}
{"smiles": "CCn1ncnc1COc1nn2c(-c3ccccc3F)nncc2c1-c1cccs1", "melting point": "190 to 192"}
{"smiles": "CCCCC/C(=C\\C=C\\C(=O)O)c1ccc(OC)cc1", "melting point": "86.5 to 87.5"}
{"smiles": "CC1CC(=O)NN=C1c1ccc(NC(=O)OC2CCC2)cc1", "note": "(stereo not given)", "melting point": "245 to 246"}
{"smiles": "Cc1nccn1-c1cc(NC(=O)OC(C)(C)C)cc(C(F)(F)F)c1", "melting point": "203 to 208"}
{"smiles": "O=S(O)c1ccc2c(c1)CCCC2", "melting point": "82 to 85"}
{"smiles": "Cc1nc(N)c2ncn(CCOCc3ccncc3)c2c1C", "melting point": "195 to 196"}
{"smiles": "Cc1cccc(N)c1C(=O)Nc1nnn[nH]1", "melting point": 248}
{"smiles": "CN(C(=O)C(C)(C)c1cc(C(F)(F)F)cc(C(F)(F)F)c1)c1cnc(N2CCOCC2)cc1-c1ccccc1Cl", "melting point": "134 to 136"}
{"smiles": "COC(=O)CCCCCCC1=CCc2cc(OC)ccc21", "melting point": "30 to 31.5"}
{"smiles": "COc1ccc(CN2CC(NC(=O)c3ccc(OCC=C(C)CCC=C(C)C)cc3)CN2Cc2ccc(OC)cc2)cc1", "melting point": "123 to 124"}
{"smiles": "COc1ccc(OC)c2c1C[C@](O)(CC#N)CC2=O", "melting point": "160 to 162"}
